Reference: ChEMBL document CHEMBL5726952, “Compounds” (2019)

What was measured:
Test in all cases: Kinase Screening Assay: Compound IC50 values were determined from 10-point, 1:3 dilution curves starting at either 100 μM or 10 μM with 10 μM ATP, by Reaction Biology Corp. For the whole kinome screen compounds were screened against 340 wild type kinases at a single dose of 1 μM, in duplicate, with 10 μM of ATP by Reaction Biology Corp. The data was averaged and plotted as percentage enzyme …
[1] = molecular target: Mast/stem cell growth factor receptor Kit (Homo sapiens, UniProt P10721)
Mast/stem cell growth factor receptor Kit, sequence (P10721 whole entry): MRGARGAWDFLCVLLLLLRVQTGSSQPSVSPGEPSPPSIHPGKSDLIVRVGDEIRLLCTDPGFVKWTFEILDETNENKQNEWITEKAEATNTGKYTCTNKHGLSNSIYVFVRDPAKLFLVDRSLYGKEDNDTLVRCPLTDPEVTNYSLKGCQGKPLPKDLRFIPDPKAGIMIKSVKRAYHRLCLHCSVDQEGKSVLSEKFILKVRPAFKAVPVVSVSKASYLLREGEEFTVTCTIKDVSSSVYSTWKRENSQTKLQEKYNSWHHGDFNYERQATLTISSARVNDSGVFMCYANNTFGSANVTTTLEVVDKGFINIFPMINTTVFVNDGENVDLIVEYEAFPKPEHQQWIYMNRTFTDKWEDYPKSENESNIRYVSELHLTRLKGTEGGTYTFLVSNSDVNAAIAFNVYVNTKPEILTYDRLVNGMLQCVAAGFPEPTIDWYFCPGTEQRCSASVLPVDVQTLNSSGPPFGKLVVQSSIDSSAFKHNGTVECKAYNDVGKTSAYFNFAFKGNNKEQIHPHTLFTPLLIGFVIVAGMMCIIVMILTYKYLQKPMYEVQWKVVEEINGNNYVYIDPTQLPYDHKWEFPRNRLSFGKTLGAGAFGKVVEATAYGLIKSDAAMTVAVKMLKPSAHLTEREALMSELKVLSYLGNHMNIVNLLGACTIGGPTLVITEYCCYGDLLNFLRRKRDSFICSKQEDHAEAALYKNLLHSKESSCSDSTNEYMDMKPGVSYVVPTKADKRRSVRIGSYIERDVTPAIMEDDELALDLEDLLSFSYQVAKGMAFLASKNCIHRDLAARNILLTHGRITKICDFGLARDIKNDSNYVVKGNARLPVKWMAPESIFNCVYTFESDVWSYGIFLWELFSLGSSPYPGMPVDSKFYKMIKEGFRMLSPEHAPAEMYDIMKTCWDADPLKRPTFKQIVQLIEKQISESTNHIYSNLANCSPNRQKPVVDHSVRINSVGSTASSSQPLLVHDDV

[2] = molecular target: Platelet-derived growth factor receptor alpha (Homo sapiens, UniProt P16234)
Platelet-derived growth factor receptor alpha, sequence (P16234 whole entry): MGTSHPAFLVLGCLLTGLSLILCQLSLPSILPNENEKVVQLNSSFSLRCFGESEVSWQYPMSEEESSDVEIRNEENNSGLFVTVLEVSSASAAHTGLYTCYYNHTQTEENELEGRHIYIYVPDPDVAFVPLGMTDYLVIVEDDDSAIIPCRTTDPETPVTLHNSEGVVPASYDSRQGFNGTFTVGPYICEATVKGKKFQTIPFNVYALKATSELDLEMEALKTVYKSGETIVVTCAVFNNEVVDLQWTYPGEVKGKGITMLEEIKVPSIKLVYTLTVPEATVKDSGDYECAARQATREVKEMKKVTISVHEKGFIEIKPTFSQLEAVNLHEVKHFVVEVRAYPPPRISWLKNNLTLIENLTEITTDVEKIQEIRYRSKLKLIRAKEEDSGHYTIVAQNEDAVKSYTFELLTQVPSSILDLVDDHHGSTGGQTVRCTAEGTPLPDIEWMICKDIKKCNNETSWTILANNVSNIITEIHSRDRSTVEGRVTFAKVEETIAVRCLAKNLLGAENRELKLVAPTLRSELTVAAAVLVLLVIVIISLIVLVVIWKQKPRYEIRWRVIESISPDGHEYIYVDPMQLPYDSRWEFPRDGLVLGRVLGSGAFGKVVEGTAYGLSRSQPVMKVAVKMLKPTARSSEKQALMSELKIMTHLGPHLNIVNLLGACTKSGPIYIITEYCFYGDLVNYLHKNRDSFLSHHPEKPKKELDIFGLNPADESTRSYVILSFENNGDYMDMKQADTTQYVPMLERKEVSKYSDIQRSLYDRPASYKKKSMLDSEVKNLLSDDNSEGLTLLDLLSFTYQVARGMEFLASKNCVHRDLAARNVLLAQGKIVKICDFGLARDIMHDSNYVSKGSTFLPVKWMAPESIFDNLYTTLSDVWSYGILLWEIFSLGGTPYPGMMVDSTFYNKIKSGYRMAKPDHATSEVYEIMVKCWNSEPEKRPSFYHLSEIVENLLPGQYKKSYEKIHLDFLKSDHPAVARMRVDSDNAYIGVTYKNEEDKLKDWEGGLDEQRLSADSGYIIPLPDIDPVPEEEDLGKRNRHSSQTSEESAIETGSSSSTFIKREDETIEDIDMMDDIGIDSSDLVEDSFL

[3] = molecular target: Proto-oncogene tyrosine-protein kinase receptor Ret (Homo sapiens, UniProt P07949)
Proto-oncogene tyrosine-protein kinase receptor Ret, sequence (P07949 whole entry): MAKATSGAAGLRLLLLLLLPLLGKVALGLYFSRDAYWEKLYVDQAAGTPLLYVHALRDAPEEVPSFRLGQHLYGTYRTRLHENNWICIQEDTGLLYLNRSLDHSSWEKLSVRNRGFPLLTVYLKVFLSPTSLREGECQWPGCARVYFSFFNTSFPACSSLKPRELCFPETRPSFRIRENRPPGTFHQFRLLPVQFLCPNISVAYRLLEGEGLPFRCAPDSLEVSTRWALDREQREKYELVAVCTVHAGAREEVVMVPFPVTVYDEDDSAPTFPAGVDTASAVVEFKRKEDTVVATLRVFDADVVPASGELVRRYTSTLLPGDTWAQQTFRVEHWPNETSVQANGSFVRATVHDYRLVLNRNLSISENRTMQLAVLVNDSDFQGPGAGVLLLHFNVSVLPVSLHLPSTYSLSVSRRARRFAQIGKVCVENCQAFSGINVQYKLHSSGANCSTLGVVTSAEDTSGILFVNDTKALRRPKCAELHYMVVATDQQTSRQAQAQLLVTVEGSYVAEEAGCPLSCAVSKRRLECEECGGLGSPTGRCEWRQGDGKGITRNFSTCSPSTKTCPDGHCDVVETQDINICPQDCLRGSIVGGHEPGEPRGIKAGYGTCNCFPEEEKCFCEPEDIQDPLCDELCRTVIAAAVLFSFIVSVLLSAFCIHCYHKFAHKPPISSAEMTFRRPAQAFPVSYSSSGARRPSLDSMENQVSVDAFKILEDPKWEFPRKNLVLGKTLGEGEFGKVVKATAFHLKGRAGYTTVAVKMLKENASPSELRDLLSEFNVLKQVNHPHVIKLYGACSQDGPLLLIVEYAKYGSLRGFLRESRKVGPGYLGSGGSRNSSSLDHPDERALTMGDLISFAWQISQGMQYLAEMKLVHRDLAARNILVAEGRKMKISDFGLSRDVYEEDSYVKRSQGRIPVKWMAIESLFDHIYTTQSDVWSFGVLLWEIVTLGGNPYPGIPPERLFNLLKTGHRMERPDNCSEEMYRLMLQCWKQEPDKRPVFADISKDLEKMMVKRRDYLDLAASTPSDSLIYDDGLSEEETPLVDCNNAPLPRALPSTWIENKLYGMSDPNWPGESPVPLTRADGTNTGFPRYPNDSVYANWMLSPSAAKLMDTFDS

[4] = molecular target: Tyrosine-protein kinase HCK (Homo sapiens, UniProt P08631)
Tyrosine-protein kinase HCK, sequence (P08631 whole entry): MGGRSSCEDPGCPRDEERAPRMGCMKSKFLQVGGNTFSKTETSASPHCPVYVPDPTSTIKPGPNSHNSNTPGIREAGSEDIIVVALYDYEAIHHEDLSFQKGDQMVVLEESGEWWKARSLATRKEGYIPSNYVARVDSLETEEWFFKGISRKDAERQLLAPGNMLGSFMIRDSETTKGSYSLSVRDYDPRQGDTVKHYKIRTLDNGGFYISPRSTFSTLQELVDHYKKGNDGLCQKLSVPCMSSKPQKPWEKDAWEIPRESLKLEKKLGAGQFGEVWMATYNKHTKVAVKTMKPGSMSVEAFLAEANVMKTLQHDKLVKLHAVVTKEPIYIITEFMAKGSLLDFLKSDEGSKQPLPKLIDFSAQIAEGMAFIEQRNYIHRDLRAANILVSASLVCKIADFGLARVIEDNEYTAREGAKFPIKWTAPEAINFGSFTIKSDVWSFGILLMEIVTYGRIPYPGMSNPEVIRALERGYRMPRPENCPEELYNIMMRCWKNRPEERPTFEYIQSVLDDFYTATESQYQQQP

[5] = molecular target: Tyrosine-protein kinase Blk (Homo sapiens, UniProt P51451)
Tyrosine-protein kinase Blk, sequence (P51451 whole entry): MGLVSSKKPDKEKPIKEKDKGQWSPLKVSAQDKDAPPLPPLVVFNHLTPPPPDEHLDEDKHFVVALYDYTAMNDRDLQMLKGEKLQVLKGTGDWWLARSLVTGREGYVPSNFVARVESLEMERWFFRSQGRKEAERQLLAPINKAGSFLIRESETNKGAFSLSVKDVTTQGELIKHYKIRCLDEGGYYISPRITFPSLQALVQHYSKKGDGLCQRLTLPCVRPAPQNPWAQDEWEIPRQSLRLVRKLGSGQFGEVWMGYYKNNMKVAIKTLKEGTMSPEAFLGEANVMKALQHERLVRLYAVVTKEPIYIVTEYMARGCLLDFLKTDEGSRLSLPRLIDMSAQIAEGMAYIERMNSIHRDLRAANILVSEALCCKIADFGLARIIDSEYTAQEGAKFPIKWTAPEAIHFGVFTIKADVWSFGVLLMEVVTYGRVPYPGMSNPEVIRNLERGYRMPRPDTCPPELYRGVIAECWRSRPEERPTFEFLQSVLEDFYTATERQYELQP

Measured: IC50

Cc1ccc(-c2nn(CCN3CCC(N(C)C)CC3)c3ncnc(N)c23)cc1
> 1000 nM: all assays above
